Counter-ions that a name gives are not always drawn.

The target of this assay is T1, human Cot/Tpl2 kinase (Homo sapiens, UniProt P41279).
T1 construct: human Cot/Tpl2 kinase construct encoding residues 30-398; 6His (N); made in house; host or cells: Sf9 insect cells (baculovirus system, BD Biosciences)
T1 sequence (P41279 30-398): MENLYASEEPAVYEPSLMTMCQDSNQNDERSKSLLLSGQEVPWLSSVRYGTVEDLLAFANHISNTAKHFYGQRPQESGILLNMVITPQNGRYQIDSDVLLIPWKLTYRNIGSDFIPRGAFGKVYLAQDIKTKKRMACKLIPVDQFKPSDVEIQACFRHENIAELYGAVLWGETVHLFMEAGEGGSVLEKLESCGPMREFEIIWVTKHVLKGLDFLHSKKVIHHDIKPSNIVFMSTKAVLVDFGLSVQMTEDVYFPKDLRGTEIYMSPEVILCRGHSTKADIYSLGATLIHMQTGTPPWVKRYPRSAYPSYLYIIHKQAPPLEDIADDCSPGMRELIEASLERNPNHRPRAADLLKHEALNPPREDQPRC
The experiment in a line: Tpl2/Cot kinase assay, GST-MEK1 phosphorylation detected by ELISA (DELFIA Eu). It is filed as biochemical. The note with it: Table 1; 0.4 nM Tpl2, 35 nM GST-MEK1, 50 uM ATP, 1 h at 30° C. The method, then: Sf9 cells expressing the kinase were lysed in 50 mM NaPhosphate pH=8; 300 mM NaCl; 5 mM imidazole; 0.1 mM EGTA; 25 mM beta-glycerophosphate; 1% TX-100, 1% glycerol; 6 mM beta-mercaptoethanol and protease inhibitors. The lysate was clarified by centrifugation and was loaded onto a Ni-Sepharose column. The column was washed with 50 mM NaPhosphate pH=8; 300 mM NaCl; 15 mM imidazole; 1% glycerol; and 6 mM beta-mercaptoethanol. His-Tpl2 was eluted with 50 mM NaPhosphate pH=8; 300 mM NaCl; 250 mM imidazole; 1% glycerol; and 6 mM beta-mercaptoethanol. The eluted protein was further purified by size exclusion chromatography. Fractions corresponding to monomeric Tpl2 were then used in the assay.
Tpl2/Cot activity was directly assayed using GST-MEK1 as a substrate. GST-MEK1 phosphorylation on serine residues 217 and 221 was detected by ELISA. 0.4 nM Tpl2 was incubated with 35 nM GST-MEK1 in a kinase reaction buffer containing 20 mM MOPS pH=7.2; 50 uM ATP; 20 mM MgCl2; 1 mM DTT; 25 mM β-glycerophosphate; 5 mM EGTA; and 1 mM sodium orthovanadate for 1 h at 30° C. The compounds of the inventions solubilized in 100% DMSO were pre-diluted in assay buffer so that the final concentration of DMSO in the reaction was 1%. The kinase reaction was carried out in 100 ul volume on 96 well plates. The kinase reaction was then stopped with the addition of 100 mM EDTA. […] After a 1 hour incubation at room temperature, the detection plate was washed 4 times with TBST (TBS+0.05% Tween 20) and then incubated for another hour at room temperature with anti phospho-MEK1 antibody (Cell Signaling) 1:1000 in 10 mM MOPS 7.5; 150 mM NaCl; 0.05% Tween 20; 0.1% Gelatin; 0.02% NaN3; and 1% BSA. The detection plate was washed again and incubated for 30 min with DELFIA Europium (Eu) labeled goat anti-rabbit IgG (Perkin-Elmer), 1:4000 in the same buffer used for the primary incubation. After a final wash, Eu detection solution was added to each well and the Eu signal was measured in a Wallac Victor^2 Multilabel Counter. IC50 calculations were preformed using the XLfit software package (IDBS, Guildford, UK).
What is called IC50 is the concentration needed to halve the response being measured. The low end stands for greater potency in that assay, the high end for weaker potency in that assay. Turning to `N#Cc1cnc2cnc(NCc3cccnc3)cc2c1Nc1ccc(F)c(Cl)c1` [Example 1, 4-(3-chloro-4-fluorophenylamino)-6-(pyridin-3-ylmethylamino)-1,7-naphthyridine-3-carbonitrile], the IC50 worked out at 50 nM. To `N#Cc1cnc2cnc(NCCN3CCOCC3)cc2c1Nc1cccc(Oc2ccccc2)c1` [Example 2, 6-(2-morpholinoethylamino)-4-(3-phenoxyphenylamino)-1,7-naphthyridine-3-carbonitrile] belongs 11600 nM; to `N#Cc1cnc2cnc(NCCN3CCOCC3)cc2c1Nc1cccc(Cl)c1` [Example 3, 4-(3-chlorophenylamino)-6-(2-morpholinoethylamino)-1,7-naphthyridine-3-carbonitrile], 1160 nM. `N#Cc1cnc2cnc(NCCN3CCOCC3)cc2c1Nc1ccc(F)cc1` [Example 4, 4-(4-fluorophenylamino)-6-(2-morpholinoethylamino)-1,7-naphthryidine-3-carbonitrile]: half-maximal inhibition (IC50) was put at 10700 nM.

As for `N#Cc1cnc2cnc(NCCN3CCOCC3)cc2c1Nc1ccc(Br)cc1` [Example 5, 4-(4-bromophenylamino)-6-(2-morpholinoethylamino)-1,7-naphthyridine-3-carbonitrile], the IC50 was above 40000 nM. `N#Cc1cnc2cnc(NCCN3CCOCC3)cc2c1Nc1ccc(Cc2ccccc2)cc1` [Example 7, 4-(4-benzylphenylamino)-6-(2-morpholinoethylamino)-1,7-naphthyridine-3-carbonitrile] yielded an IC50 of 8 nM. The value for `N#Cc1cnc2cnc(NCc3cccnc3)cc2c1Nc1ccc(F)cc1` [Example 9, 4-(4-fluorophenylamino)-6-(pyridin-3-ylmethylamino)-1,7-naphthyridine-3-carbonitrile] was 1700 nM. The value for `N#Cc1cnc2cnc(NCCN3CCOCC3)cc2c1Nc1ccc(Nc2ccccc2)cc1` [Example 10, 6-(2-morpholinoethylamino)-4-(4-(phenylamino)phenylamino)-1,7-naphthyridine-3-carbonitrile] was 7600 nM. `N#Cc1cnc2cnc(NCCN3CCOCC3)cc2c1Nc1ccc(Sc2ccccc2)cc1` [Example 11, 6-(2-morpholinoethylamino)-4-(4-(phenylthio)phenylamino)-1,7-naphthyridine-3-carbonitrile] showed an IC50 of 6 nM. With `N#Cc1cnc2cnc(NCc3cccnc3)cc2c1Nc1cccc(Cl)c1` [Example 12, 4-(3-chlorophenylamino)-6-(pyridin-3-ylmethylamino)-1,7-naphthyridine-3-carbonitrile], it took 65 nM to reach half-maximal inhibition (IC50). The molecule `N#Cc1cnc2cnc(NCCN3CCOCC3)cc2c1Nc1ccc(F)c(F)c1` [Example 13, 4-(3,4-difluorophenylamino)-6-(2-morpholinoethylamino)-1,7-naphthryidine-3-carbonitrile] returned an IC50 of 3600 nM. The molecule `N#Cc1cnc2cnc(NCc3cccnc3)cc2c1Nc1ccc(Cc2ccccc2)cc1` [Example 14, 4-(4-benzylphenylamino)-6-(pyridin-3-ylmethylamino)-1,7-naphthryidine-3-carbonitrile] had an IC50 of 17 nM. `N#Cc1cnc2cnc(NCc3cccnc3)cc2c1Nc1cccc(Oc2ccccc2)c1` [Example 15, 4-(3-phenoxyphenylamino)-6-(pyridin-3-ylmethylamino)-1,7-naphthyridine-3-carbonitrile]: the IC50 was above 40000 nM. As to `N#Cc1cnc2cnc(NCc3cccnc3)cc2c1Nc1ccc(Cl)cc1` [Example 16, 4-(4-chlorophenylamino)-6-(pyridin-3-ylmethylamino)-1,7-naphthyridine-3-carbonitrile], the IC50 was above 10000 nM.

`N#Cc1cnc2cnc(NCc3cccnc3)cc2c1Nc1ccc(Br)cc1` [Example 17, 4-(4-bromophenylamino)-6-(pyridin-3-ylmethylamino)-1,7-naphthyridine-3-carbonitrile] displayed an IC50 above 10000 nM.

`N#Cc1cnc2cnc(NCc3cccnc3)cc2c1Nc1ccc(Nc2ccccc2)cc1` [Example 18, 4-(4-(phenylamino)phenylamino)-6-(pyridin-3-ylmethylamino)-1,7-naphthyridine-3-carbonitrile] displayed an IC50 above 10000 nM. In turn, `N#Cc1cnc2cnc(NCc3cccnc3)cc2c1Nc1ccc(Sc2ccccc2)cc1` [Example 19, 4-(4-(phenylthio)phenylamino)-6-(pyridin-3-ylmethylamino)-1,7-naphthyridine-3-carbonitrile] registered an IC50 of 9 nM. `N#Cc1cnc2cnc(NCc3cccnc3)cc2c1Nc1ccc(F)c(F)c1` [Example 20, 4-(3,4-difluorophenylamino)-6-(pyridin-3-ylmethylamino)-1,7-naphthyridine-3-carbonitrile] came in with an IC50 of 290 nM. With `CN(C)CCCNc1cc2c(Nc3ccc(Cc4ccccc4)cc3)c(C#N)cnc2cn1` [Example 21, 4-(4-benzylphenylamino)-6-(3-(dimethylamino)propylamino)-1,7-naphthyridine-3-carbonitrile], the IC50 stood at 9.6 nM.

`CN1CCN(CCCNc2cc3c(Nc4ccc(Cc5ccccc5)cc4)c(C#N)cnc3cn2)CC1` [Example 22, 4-(4-benzylphenylamino)-6-(3-(4-methylpiperazin-1-yl)propylamino)-1,7-naphthyridine-3-carbonitrile] showed an IC50 of 79 nM. To `CN(C)CCNc1cc2c(Nc3ccc(Cc4ccccc4)cc3)c(C#N)cnc2cn1` [Example 23, 4-(4-benzylphenylamino)-6-(2-(dimethylamino)ethylamino)-1,7-naphthyridine-3-carbonitrile] belongs 36 nM; to `N#Cc1cnc2cnc(NCCN3CCOCC3)cc2c1Nc1cccc(F)c1` [Example 24, 4-(3-fluorophenylamino)-6-(2-morpholinoethylamino)-1,7-naphthyridine-3-carbonitrile], 1120 nM.

Molecule `N#Cc1cnc2cnc(NCCN3CCNCC3)cc2c1Nc1ccc(Cc2ccccc2)cc1` [Example 25, 4-(4-benzylphenylamino)-6-(2-(piperazin-1-yl)ethylamino)-1,7-naphthyridine-3-carbonitrile, hydrochloride salt] yielded a concentration for half-maximal inhibition (IC50) of 38 nM. To `N#Cc1cnc2cnc(NCCN3CCOCC3)cc2c1Nc1ccc(C(=O)c2ccccc2)cc1` [Example 27, 4-(4-benzoylphenylamino)-6-(2-morpholinoethylamino)-1,7-naphthyridine-3-carbonitrile] belongs 4600 nM. Turning to `Cc1cccc(Nc2c(C#N)cnc3cnc(NCc4cccnc4)cc23)c1` [Example 29, 4-(3-methylphenylamino)-6-(pyridin-3-ylmethylamino)-1,7-naphthyridine-3-carbonitrile], the IC50 is above 40000 nM. `COC(=O)c1ccc(Nc2c(C#N)cnc3cnc(NCc4cccnc4)cc23)cc1` [Example 30, Methyl 4-(3-cyano-6-(pyridin-3-ylmethylamino)-1,7-naphthyridin-4-ylamino)benzoate] gave an IC50 above 40000 nM. Take `COc1ccc(Nc2c(C#N)cnc3cnc(NCCN4CCOCC4)cc23)cc1` [Example 31, 4-(4-methoxyphenylamino)-6-(2-morpholinoethylamino)-1,7-naphthyridine-3-carbonitrile]: the IC50 is above 40000 nM. In turn, `N#Cc1cnc2cnc(NCc3cccnc3)cc2c1Nc1cccc(OC(F)(F)F)c1` [Example 32, 6-(pyridin-3-ylmethylamino)-4-(3-(trifluoromethoxy)phenylamino)-1,7-naphthyridine-3-carbonitrile] displayed an IC50 above 40000 nM.

Take `N#Cc1cnc2cnc(NCc3cccnc3)cc2c1Nc1ccc(OC(F)(F)F)cc1` [Example 33, 6-(pyridin-3-ylmethylamino)-4-(4-(trifluoromethoxy)phenylamino)-1,7-naphthyridine-3-carbonitrile]: the IC50 is above 40000 nM.

Consider `N#Cc1cnc2cnc(N)cc2c1Nc1ccc(F)c(Cl)c1` [Example 35, 6-amino-4-[(3-chloro-4-fluorophenyl)amino]-1,7-naphthyridine-3-carbonitrile], for which inhibition was half-maximal at 5000 nM (IC50). In turn, `CC(C)c1cccc(Nc2c(C#N)cnc3cnc(OCCN4CCOCC4)cc23)c1` [Example 36, 4-[(3-isopropylphenyl)amino]-6-(2-morpholin-4-ylethoxy)-1,7-naphthyridine-3-carbonitrile] gave an IC50 above 40000 nM. On to `CC(C)c1cccc(Nc2c(C#N)cnc3cnc(NCCN4CCOCC4)cc23)c1` [Example 37, 4-[(3-isopropylphenyl)amino]-6-[(2-morpholin-4-ylethyl)amino]-1,7-naphthyridine-3-carbonitrile], for which the IC50 is above 40000 nM.

Values taken from patent publication US20060276498A1 (Wyeth, priority 2005, published 2006).
